The text below walks through data of ChEMBL document CHEMBL1124183, “Conformations of complexes between mitomycins and decanucleotides. 3. Sequence specificity, binding at C-10, and mitomycin analogues” (1988).

For this assay, the species on record is Mus musculus. Description: Minimum effective dose (MED) of compound against P388 Leukemia in mice was determined. In kind it is functional. The conditions noted are these: read-out: MED.
As for `CO[C@@]12C(COC(N)=O)C3=C(C(=O)C(C)=C(NCCS)C3=O)N1CC1NC12` (some centres undefined), the minimal effective dose was found to be 0.2 mg/kg.

`CO[C@@]12C(COC(N)=O)C3=C(C(=O)C(C)=C(NC=[N+](C)C)C3=O)N1CC1NC12` (some centres undefined): the minimal effective dose was 0.05 mg/kg. The value for `CO[C@@]12C(COC(N)=O)c3c(O)c(N=C4C=CC(=O)C=C4)c(C)c(O)c3N1CC1NC12` (some centres undefined) was 0.1 mg/kg; that for `CO[C@@]12[C@H](COC(N)=O)C3=C(C(=O)C(C)=C(N)C3=O)N1C[C@@H]1N[C@@H]12` [MITOMYCIN] was 0.2 mg/kg.
